Common to all, as to test: pIC50, kinobeads binding competition
For one test, the target named is EPHA5 (UniProt P54756). The conditions noted are these: cell material: Lysate mix. Put shortly: (§1)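 pIC50 was obtained by fitting fold changes against vehicle to logistic dose-response curves with the R drc package, using biological duplicates. Kinobeads-bound proteins were digested and measured by TMT10 LC-MS/MS. Before this, either living Jurkat cells received nine compound concentrations (top 30 μM, 1:4 steps) for 60 min at 37 °C prior to lysis, or Jurkat lysate or a 1:1:1:1 HEK293/K-562/HepG2/placenta lysate mix received nine concentrations (top 30 μM, 1:5 steps) for 60 min at 4 °C.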

Another test has as its target T1, MARK4 (UniProt Q96L34).
T1 sequence (whole entry): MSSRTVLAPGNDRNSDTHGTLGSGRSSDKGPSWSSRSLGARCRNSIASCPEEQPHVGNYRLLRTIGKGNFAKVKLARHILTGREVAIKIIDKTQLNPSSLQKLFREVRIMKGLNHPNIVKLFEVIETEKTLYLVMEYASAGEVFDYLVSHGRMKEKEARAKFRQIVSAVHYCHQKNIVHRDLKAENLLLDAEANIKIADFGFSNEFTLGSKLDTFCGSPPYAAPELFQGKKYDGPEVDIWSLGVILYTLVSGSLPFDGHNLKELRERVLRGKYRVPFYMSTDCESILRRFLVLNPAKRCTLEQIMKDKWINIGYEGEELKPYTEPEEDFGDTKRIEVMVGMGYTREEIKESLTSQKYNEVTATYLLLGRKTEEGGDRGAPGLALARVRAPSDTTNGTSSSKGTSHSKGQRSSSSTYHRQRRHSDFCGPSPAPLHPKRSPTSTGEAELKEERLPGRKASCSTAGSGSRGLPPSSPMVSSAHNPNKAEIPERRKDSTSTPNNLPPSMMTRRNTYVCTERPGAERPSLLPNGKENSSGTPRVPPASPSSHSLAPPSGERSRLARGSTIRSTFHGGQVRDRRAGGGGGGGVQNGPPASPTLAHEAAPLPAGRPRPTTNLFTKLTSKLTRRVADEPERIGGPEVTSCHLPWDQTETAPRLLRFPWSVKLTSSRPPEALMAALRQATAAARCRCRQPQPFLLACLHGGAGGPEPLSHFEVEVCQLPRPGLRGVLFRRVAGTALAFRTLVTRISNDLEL
A digest of the protocol:
as §1

Another test has as its target T2, TTK (UniProt P33981).
T2 sequence (whole entry): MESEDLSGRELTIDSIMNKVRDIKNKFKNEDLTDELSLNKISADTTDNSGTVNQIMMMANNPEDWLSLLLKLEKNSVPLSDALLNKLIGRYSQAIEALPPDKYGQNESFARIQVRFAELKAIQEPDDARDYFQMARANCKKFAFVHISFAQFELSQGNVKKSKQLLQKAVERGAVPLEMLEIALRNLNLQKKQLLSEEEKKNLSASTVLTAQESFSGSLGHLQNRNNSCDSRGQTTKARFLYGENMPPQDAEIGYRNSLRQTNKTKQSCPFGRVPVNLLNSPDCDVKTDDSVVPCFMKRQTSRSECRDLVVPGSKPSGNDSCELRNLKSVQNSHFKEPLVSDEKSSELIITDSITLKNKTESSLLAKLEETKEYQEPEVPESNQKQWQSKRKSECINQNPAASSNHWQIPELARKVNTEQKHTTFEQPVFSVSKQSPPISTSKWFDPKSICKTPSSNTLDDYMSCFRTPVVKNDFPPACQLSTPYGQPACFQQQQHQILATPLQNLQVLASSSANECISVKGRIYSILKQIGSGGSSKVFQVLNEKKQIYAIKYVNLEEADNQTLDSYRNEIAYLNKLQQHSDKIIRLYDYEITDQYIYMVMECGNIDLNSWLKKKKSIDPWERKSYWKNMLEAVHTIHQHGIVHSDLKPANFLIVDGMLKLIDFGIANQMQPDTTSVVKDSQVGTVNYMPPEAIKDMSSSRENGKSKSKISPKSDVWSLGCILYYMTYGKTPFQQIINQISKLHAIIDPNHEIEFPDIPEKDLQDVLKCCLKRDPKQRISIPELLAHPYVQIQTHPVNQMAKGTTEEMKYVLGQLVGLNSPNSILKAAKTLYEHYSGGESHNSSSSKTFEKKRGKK
Put shortly: as §1

For the next test, the target named is UniProt Q13557. Put shortly:
as §1

A further test concerns the target T3, UniProt Q15139.
T3 sequence (whole entry): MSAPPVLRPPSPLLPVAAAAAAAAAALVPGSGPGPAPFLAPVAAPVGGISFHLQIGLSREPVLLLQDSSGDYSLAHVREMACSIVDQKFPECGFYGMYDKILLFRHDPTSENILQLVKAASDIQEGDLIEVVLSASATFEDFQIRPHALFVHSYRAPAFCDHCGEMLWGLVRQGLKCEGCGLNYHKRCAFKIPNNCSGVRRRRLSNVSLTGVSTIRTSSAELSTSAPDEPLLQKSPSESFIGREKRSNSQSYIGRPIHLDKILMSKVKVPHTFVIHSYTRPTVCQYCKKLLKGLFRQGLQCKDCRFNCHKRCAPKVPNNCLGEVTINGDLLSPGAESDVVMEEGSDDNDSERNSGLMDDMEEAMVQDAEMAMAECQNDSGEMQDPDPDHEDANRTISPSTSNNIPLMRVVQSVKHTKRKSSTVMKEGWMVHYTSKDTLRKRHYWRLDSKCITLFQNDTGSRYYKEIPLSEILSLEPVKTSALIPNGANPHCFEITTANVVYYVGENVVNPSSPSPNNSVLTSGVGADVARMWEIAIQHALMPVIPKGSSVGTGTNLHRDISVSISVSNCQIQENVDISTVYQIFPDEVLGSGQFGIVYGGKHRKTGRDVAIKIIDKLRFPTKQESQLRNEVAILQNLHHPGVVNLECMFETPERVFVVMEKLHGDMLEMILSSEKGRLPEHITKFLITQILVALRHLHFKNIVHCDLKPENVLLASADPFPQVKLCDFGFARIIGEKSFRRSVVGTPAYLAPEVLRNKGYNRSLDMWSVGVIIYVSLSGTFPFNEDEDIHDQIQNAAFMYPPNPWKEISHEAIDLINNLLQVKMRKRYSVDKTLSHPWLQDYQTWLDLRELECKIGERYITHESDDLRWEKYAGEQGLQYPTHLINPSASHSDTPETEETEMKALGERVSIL
The note with it: cell material: Lysate mix. Put shortly:
as §1

The structures appear in SMILES notation.

Usually pIC50 stands for the negative decadic logarithm of the IC50, by convention in mol/L. A low value points to a high IC50.

Sequence of EPHA5 (P54756 whole entry): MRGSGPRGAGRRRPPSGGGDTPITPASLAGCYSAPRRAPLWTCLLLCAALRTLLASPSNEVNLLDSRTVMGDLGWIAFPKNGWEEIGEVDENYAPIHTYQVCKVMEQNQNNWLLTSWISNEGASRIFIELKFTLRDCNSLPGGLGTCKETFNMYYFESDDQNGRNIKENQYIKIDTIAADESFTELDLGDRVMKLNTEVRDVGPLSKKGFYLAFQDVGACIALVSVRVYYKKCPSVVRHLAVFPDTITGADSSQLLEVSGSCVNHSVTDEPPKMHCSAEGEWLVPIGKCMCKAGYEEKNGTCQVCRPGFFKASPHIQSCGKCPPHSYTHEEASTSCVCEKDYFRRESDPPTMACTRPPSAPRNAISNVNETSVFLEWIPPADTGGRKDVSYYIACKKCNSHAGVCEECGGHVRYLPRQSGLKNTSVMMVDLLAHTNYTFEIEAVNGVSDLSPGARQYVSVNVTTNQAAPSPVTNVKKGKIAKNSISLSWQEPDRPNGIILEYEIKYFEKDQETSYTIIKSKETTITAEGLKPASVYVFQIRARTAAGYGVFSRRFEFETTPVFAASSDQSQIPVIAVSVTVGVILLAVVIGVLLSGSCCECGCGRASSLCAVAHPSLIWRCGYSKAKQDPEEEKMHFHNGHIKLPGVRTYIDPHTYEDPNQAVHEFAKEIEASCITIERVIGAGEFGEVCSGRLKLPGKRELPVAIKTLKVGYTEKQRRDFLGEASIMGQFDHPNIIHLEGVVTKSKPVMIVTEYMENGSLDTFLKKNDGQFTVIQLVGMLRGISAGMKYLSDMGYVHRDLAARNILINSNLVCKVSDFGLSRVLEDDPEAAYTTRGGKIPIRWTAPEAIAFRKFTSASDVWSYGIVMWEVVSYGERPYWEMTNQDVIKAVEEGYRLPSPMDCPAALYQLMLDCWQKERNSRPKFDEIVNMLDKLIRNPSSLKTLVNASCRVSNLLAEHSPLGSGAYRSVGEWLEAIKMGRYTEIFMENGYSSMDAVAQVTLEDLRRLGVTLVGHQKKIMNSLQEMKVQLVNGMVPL
Sequence of UniProt Q13557 (Q13557 whole entry): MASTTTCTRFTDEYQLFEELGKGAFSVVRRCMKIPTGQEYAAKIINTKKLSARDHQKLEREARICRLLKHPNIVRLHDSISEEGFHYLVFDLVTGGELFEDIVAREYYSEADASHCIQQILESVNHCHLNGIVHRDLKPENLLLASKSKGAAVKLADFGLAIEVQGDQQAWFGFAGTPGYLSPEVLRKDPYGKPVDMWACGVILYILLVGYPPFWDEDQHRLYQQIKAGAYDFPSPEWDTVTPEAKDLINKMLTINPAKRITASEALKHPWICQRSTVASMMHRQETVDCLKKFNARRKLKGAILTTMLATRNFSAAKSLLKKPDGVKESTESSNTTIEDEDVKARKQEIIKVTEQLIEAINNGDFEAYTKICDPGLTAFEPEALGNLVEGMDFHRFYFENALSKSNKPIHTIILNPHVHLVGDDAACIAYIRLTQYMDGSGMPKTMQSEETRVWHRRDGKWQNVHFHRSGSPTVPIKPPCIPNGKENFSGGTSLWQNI

For the molecule `C#CCNC(=O)c1cc(Nc2cc(C)[nH]n2)nc(N2CCN(Cc3ccc(S(=O)(=O)F)cc3)CC2)n1`, the negative logarithm of the IC50 (pIC50) on EPHA5, on MARK4 (cell material: Lysate mix), at TTK (cell material: Lysate mix), at UniProt Q13557 (cell material: Lysate mix) and at UniProt Q15139 was less than 4.52 each time.
On to `O=C(NCCNC(=O)c1cc(Nc2cc(C3CC3)[nH]n2)nc(N2CCN(Cc3ccc(S(=O)(=O)F)cc3)CC2)n1)OC1CC/C=C/CCC1` (configuration not stated), for which the negative-log IC50 (pIC50) on EPHA5 was less than 4.52; on MARK4 (cell material: Jurkat cells) it was 5.44; on MARK4 (cell material: Jurkat lysate), less than 4.52; at MARK4 (cell material: Lysate mix), less than 4.52; on TTK (cell material: Jurkat cells) it was less than 4.52; at TTK (cell material: Jurkat lysate) it was less than 4.52. Further, the pIC50 at TTK (cell material: Lysate mix), at UniProt Q13557 (cell material: Jurkat cells), at UniProt Q13557 (cell material: Jurkat lysate), on UniProt Q13557 (cell material: Lysate mix) and at UniProt Q15139 was less than 4.52 throughout.
As to `CCNC(=O)c1cc(Nc2cc(C3CC3)[nH]n2)nc(N2CCN(Cc3ccc(S(=O)(=O)F)cc3)CC2)n1`, the negative-log IC50 (pIC50) is less than 4.52 at EPHA5; 4.93 on MARK4 (cell material: Lysate mix); less than 4.52 on TTK (cell material: Lysate mix); less than 4.52 on UniProt Q13557 (cell material: Lysate mix); less than 4.52 at UniProt Q15139.
Regarding `Cc1cc(Nc2cc(C(=O)NCCNC(=O)OC3CC/C=C/CCC3)nc(N3CCN(Cc4ccc(S(=O)(=O)F)cc4)CC3)n2)n[nH]1` (configuration not stated), the pIC50 at EPHA5, on MARK4 (cell material: Lysate mix), at TTK (cell material: Lysate mix), on UniProt Q13557 (cell material: Lysate mix) and on UniProt Q15139 was less than 4.52 each time.
As for `CCNC(=O)c1cc(Nc2cc(C)[nH]n2)nc(N2CCN(Cc3ccc(S(=O)(=O)F)cc3)CC2)n1`, the pIC50 on EPHA5, at MARK4 (cell material: Lysate mix), on TTK (cell material: Lysate mix), at UniProt Q13557 (cell material: Lysate mix) and at UniProt Q15139 was less than 4.52 throughout.
Turning to `C#CCNC(=O)c1cc(Nc2cc(C3CC3)[nH]n2)nc(N2CCN(Cc3ccc(S(=O)(=O)F)cc3)CC2)n1`, the pIC50 at EPHA5 is less than 4.52; on MARK4 (cell material: Jurkat cells), 5.98; on MARK4 (cell material: Jurkat lysate), less than 4.52; on MARK4 (cell material: Lysate mix), 4.81; on TTK (cell material: Jurkat cells), 5.56; at TTK (cell material: Jurkat lysate), less than 4.52. Besides, the pIC50 was less than 4.52 at TTK (cell material: Lysate mix); 4.9 at UniProt Q13557 (cell material: Jurkat cells); less than 4.52 at UniProt Q13557 (cell material: Jurkat lysate); less than 4.52 at UniProt Q13557 (cell material: Lysate mix); less than 4.52 at UniProt Q15139.
